Values after ≈ are worked out from the molar mass of the structure shown. Like-named read-outs stand apart in the source and are kept apart here.
How the values were obtained:
Assay in all cases: MIC, broth-microdilution (CLSI VET01-A4)
Assay type in all cases: cell-based
[1] = tested on: Mannheimia haemolytica MH 13093 (XB0472-6014.1, BRD field isolate)
Procedure, shortened: (§1)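 Broth microdilution per CLSI VET01-A4 using doubling dilution series of compound. MIC taken as the lowest concentration with no turbidity visible to the unaided eye, interpreted per CLSI VET01-S3.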

[2] = tested on: Mannheimia haemolytica MH 13065 (XB0446-6003.9, BRD field isolate)
Procedure, shortened: as §1

[3] = tested on: Pasteurella multocida PM 12080 (IV102277-0093, BRD field isolate); conditions: Pasteurella multocida PM 12080; for MIC: read-out: MIC PM 12080
Procedure, shortened: (§2)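 MIC values follow CLSI VET01-S3 interpretation, scored as the lowest concentration free of visible turbidity within a doubling dilution series in microdilution trays.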

[4] = tested on: Mannheimia haemolytica MH 12587 (1071, BRD field isolate, macrolide-resistance: erm+, E+); conditions: for MIC MH 12587: Mannheimia haemolytica MH 12587, macrolide-resistant
Procedure, shortened: as §2

[5] = tested on: Pasteurella multocida PM 6391 (ATCC 43137, reference strain); conditions: Pasteurella multocida PM 6391; for MIC: read-out: MIC PM 6391
Procedure, shortened: as §2

[6] = tested on: Mannheimia haemolytica MH 10720 (154, BRD field isolate); conditions: Mannheimia haemolytica MH 10720; for MIC: read-out: MIC MH 10720
Procedure, shortened: as §2

[7] = tested on: Pasteurella multocida PM 10775 (080130003051, BRD field isolate); conditions: Pasteurella multocida PM 10775
Procedure, shortened: as §2

[8] = tested on: Pasteurella multocida PM 6267 (P 2225 (L386), reference strain, mouse infection strain); conditions: Pasteurella multocida PM 6267; for MIC: read-out: MIC PM 6267
Procedure, shortened: as §2

[9] = tested on: Mannheimia haemolytica MH 6357 (M7/2, reference strain, cattle infection strain); conditions: Mannheimia haemolytica MH 6357; read-out: MIC MH 6357
Procedure, shortened: as §2

[10] = tested on: Mannheimia haemolytica MH 6374 (ATCC 33396, reference strain); conditions: Mannheimia haemolytica MH 6374, read-out: MIC MH 6374
Procedure, shortened: as §2

Structure (SMILES) | MIC [1] | MIC [2] | MIC PM 12080 [3] | MIC MH 12587 [4] | MIC [5] | MIC MH 10720 [6] | MIC PM 10775 [7] | MIC PM 6267 [8] | MIC [9] | MIC [10] | MIC PM 6391 [5] | MIC [3] | MIC [6] | MIC [8] | MIC ([4]; Mannheimia haemolytica, read-out: MIC MH 12587) | MIC ([5]; ATCC43137) | MIC ([7]; read-out: MIC PM 10775) | MIC ([10]; ATCC33396)
CSCCNCc1ccc(C#Cc2ccc(C(=O)NC(C(=O)NO)C(C)(C)N)cc2)s1 (racemic) [Compound 635] | 0.8 µM (≈ 0.369 µg/mL) | 0.8 µM (≈ 0.369 µg/mL) | <=0.1 μM | 1.6 µM (≈ 0.737 µg/mL) | 0.4 µM (≈ 0.184 µg/mL) | <=0.1 μM | <=0.1 μM | <=0.1 μM | 1.6 µM (≈ 0.737 µg/mL) | 0.4 µM (≈ 0.184 µg/mL) | – | – | – | – | – | – | – | –
C[C@@H](O)[C@H](NC(=O)c1ccc(C#Cc2ccc(CNCc3nccs3)cc2)cc1)C(=O)NO [Compound 359] | 0.4 µM (≈ 0.186 µg/mL) | 0.2 µM (≈ 0.0929 µg/mL) | <=0.1 μM | 0.4 µM (≈ 0.186 µg/mL) | – | <=0.1 μM | <=0.1 μM | <=0.1 μM | 0.2 µM (≈ 0.0929 µg/mL) | 0.2 µM (≈ 0.0929 µg/mL) | <=0.1 μM | – | – | – | – | – | – | –
CSC(C)(C)[C@H](NC(=O)c1ccc(C#Cc2ccc(CNCC#N)cc2)cc1)C(=O)NO [Compound 592] | 0.4 µM (≈ 0.18 µg/mL) | 0.8 µM (≈ 0.36 µg/mL) | – | 0.8 µM (≈ 0.36 µg/mL) | 0.2 µM (≈ 0.0901 µg/mL) | <=0.1 μM | <=0.1 μM | <=0.1 μM | 0.4 µM (≈ 0.18 µg/mL) | 0.8 µM (≈ 0.36 µg/mL) | – | 0.2 µM (≈ 0.0901 µg/mL) | – | – | – | – | – | –
CCC(C)C(NC(=O)c1ccc(C#Cc2ccc(CNCc3cccs3)cc2)cc1)C(=O)NO (stereo not shown) [Compound 302] | 0.8 µM (≈ 0.38 µg/mL) | 0.8 µM (≈ 0.38 µg/mL) | – | 1.6 µM (≈ 0.761 µg/mL) | 0.8 µM (≈ 0.38 µg/mL) | – | <=0.1 μM | – | 0.4 µM (≈ 0.19 µg/mL) | 1.6 µM (≈ 0.761 µg/mL) | – | 0.2 µM (≈ 0.0951 µg/mL) | 0.2 µM (≈ 0.0951 µg/mL) | 0.2 µM (≈ 0.0951 µg/mL) | – | – | – | –
C=CCNCc1ccc(C#Cc2ccc(C(=O)NC(C(=O)NO)C(C)(C)SC)cc2)cc1 (stereo not shown) [C. 582] | 0.8 µM (≈ 0.361 µg/mL) | 0.8 µM (≈ 0.361 µg/mL) | – | 1.6 µM (≈ 0.723 µg/mL) | 0.4 µM (≈ 0.181 µg/mL) | <=0.1 μM | <=0.1 μM | <=0.1 μM | 0.8 µM (≈ 0.361 µg/mL) | 0.8 µM (≈ 0.361 µg/mL) | – | 0.4 µM (≈ 0.181 µg/mL) | – | – | – | – | – | –
CSC(C)(C)[C@H](NC(=O)c1ccc(C#Cc2ccc(CNCc3ccncc3)s2)cc1)C(=O)NO [Compound 740] | 0.8 µM (≈ 0.407 µg/mL) | 0.8 µM (≈ 0.407 µg/mL) | <=0.1 μM | 1.6 µM (≈ 0.814 µg/mL) | 0.4 µM (≈ 0.203 µg/mL) | – | <=0.1 μM | – | 0.8 µM (≈ 0.407 µg/mL) | 0.8 µM (≈ 0.407 µg/mL) | – | – | 0.2 µM (≈ 0.102 µg/mL) | 0.4 µM (≈ 0.203 µg/mL) | – | – | – | –
C[C@@H](O)[C@H](NC(=O)c1ccc(C#Cc2ccc([N+](=O)[O-])cc2)cc1)C(=O)NO [Compound 243, N-[(1S,2R)-2-hydroxy-1-(hydroxycarbamoyl)propyI]-4-[2-(4-nitrophenyl)ethynyl]benzamide] | 1.6 µM (≈ 0.613 µg/mL) | 0.4 µM (≈ 0.153 µg/mL) | – | – | – | – | – | – | 0.2 µM (≈ 0.0767 µg/mL) | – | – | 0.2 µM (≈ 0.0767 µg/mL) | ≤ 0.1 µM | ≤ 0.1 µM | 0.8 µM (≈ 0.307 µg/mL) | 0.2 µM (≈ 0.0767 µg/mL) | ≤ 0.1 µM | 0.4 µM (≈ 0.153 µg/mL)
CC(C)(N)C(NC(=O)c1ccc(C#Cc2ccc(CNCC(F)(F)F)s2)cc1)C(=O)NO (racemic) [Compound 648] | 1.6 µM (≈ 0.75 µg/mL) | 0.4 µM (≈ 0.187 µg/mL) | – | 0.8 µM (≈ 0.375 µg/mL) | 0.4 µM (≈ 0.187 µg/mL) | <=0.1 μM | <=0.1 μM | <=0.1 μM | 0.8 µM (≈ 0.375 µg/mL) | 0.4 µM (≈ 0.187 µg/mL) | – | 0.2 µM (≈ 0.0937 µg/mL) | – | – | – | – | – | –
C[C@@H](O)[C@H](NC(=O)c1ccc(C#Cc2ccc(CNCc3ccccn3)cc2)cc1)C(=O)NO [C. 258] | 0.8 µM (≈ 0.367 µg/mL) | 0.8 µM (≈ 0.367 µg/mL) | <=0.1 μM | 1.6 µM (≈ 0.734 µg/mL) | 0.2 µM (≈ 0.0917 µg/mL) | – | <=0.1 μM | <=0.1 μM | 0.4 µM (≈ 0.183 µg/mL) | 0.8 µM (≈ 0.367 µg/mL) | – | – | 0.2 µM (≈ 0.0917 µg/mL) | – | – | – | – | –
CC(C)(N)C(NC(=O)c1ccc(C#Cc2ccc(CNCC(F)(F)F)cc2)cc1)C(=O)NO (racemic) [Compound 623] | 0.8 µM (≈ 0.37 µg/mL) | 0.8 µM (≈ 0.37 µg/mL) | <=0.1 μM | 1.6 µM (≈ 0.74 µg/mL) | 0.2 µM (≈ 0.0925 µg/mL) | <=0.1 μM | <=0.1 μM | <=0.1 μM | 0.8 µM (≈ 0.37 µg/mL) | 0.4 µM (≈ 0.185 µg/mL) | – | – | – | – | – | – | – | –
CC(C)([C@H](NC(=O)c1ccc(C#Cc2ccc(CN3CCOCC3)cc2)cc1)C(=O)NO)S(C)(=O)=O [Compound 604] | 1.6 µM (≈ 0.822 µg/mL) | 0.8 µM (≈ 0.411 µg/mL) | <=0.1 μM | 1.6 µM (≈ 0.822 µg/mL) | – | – | <=0.1 μM | <=0.1 μM | 1.6 µM (≈ 0.822 µg/mL) | 1.6 µM (≈ 0.822 µg/mL) | <=0.1 μM | – | 0.2 µM (≈ 0.103 µg/mL) | – | – | – | – | –
CSC(C)(C)[C@H](NC(=O)c1ccc(C#Cc2ccc(CNCc3nccs3)nc2)cc1)C(=O)NO [Compound 744] | 1.6 µM (≈ 0.815 µg/mL) | 0.8 µM (≈ 0.408 µg/mL) | – | 1.6 µM (≈ 0.815 µg/mL) | 0.4 µM (≈ 0.204 µg/mL) | – | <=0.1 μM | – | 0.8 µM (≈ 0.408 µg/mL) | 0.8 µM (≈ 0.408 µg/mL) | – | 0.2 µM (≈ 0.102 µg/mL) | 0.4 µM (≈ 0.204 µg/mL) | 0.4 µM (≈ 0.204 µg/mL) | – | – | – | –
C=CCNCc1ccc(C#Cc2ccc(C(=O)NC(C(=O)NO)C(C)(C)S(C)(=O)=O)cc2)cc1 (stereo not shown) [C. 602] | 0.8 µM (≈ 0.387 µg/mL) | 0.8 µM (≈ 0.387 µg/mL) | <=0.1 μM | 1.6 µM (≈ 0.774 µg/mL) | – | <=0.1 μM | <=0.1 μM | <=0.1 μM | 1.6 µM (≈ 0.774 µg/mL) | 0.8 µM (≈ 0.387 µg/mL) | <=0.1 μM | – | – | – | – | – | – | –
